Data on 21 compounds can be found in patent publication US20260258035A1, “FIVE-MEMBERED AND SIX-MEMBERED NITROGEN-CONTAINING COMPOUND, AND INTERMEDIATE, PREPARATION METHOD AND USE THEREOF” (HANGZHOU SYNRX THERAPEUTICS BIOMEDICAL TECHNOLOGY CO., LTD., priority 2022, published 2026).

Where two headings read alike, the source gives them in different places. A value given as a limit tells only on which side of the number the result lay.

One test concerns the target PARG (Homo sapiens, UniProt Q86W56). The test can be described thus: Biochemical assay (PARG, TFMU-ADPr substrate).
A further test relates to HCC1806. The test can be described thus: Cell viability assay (CellTiter-Glo). It is filed as cell-based, Human. Conditions: HCC1806, 7 days, CellTiter-Glo, read-out: IC50 (nM) in cell viability assay.
Setting [1] is: 4 nM PARG, 66.2 uM TFMU-ADPr, 3 min at room temperature.

Chain of PARG (Q86W56 whole entry): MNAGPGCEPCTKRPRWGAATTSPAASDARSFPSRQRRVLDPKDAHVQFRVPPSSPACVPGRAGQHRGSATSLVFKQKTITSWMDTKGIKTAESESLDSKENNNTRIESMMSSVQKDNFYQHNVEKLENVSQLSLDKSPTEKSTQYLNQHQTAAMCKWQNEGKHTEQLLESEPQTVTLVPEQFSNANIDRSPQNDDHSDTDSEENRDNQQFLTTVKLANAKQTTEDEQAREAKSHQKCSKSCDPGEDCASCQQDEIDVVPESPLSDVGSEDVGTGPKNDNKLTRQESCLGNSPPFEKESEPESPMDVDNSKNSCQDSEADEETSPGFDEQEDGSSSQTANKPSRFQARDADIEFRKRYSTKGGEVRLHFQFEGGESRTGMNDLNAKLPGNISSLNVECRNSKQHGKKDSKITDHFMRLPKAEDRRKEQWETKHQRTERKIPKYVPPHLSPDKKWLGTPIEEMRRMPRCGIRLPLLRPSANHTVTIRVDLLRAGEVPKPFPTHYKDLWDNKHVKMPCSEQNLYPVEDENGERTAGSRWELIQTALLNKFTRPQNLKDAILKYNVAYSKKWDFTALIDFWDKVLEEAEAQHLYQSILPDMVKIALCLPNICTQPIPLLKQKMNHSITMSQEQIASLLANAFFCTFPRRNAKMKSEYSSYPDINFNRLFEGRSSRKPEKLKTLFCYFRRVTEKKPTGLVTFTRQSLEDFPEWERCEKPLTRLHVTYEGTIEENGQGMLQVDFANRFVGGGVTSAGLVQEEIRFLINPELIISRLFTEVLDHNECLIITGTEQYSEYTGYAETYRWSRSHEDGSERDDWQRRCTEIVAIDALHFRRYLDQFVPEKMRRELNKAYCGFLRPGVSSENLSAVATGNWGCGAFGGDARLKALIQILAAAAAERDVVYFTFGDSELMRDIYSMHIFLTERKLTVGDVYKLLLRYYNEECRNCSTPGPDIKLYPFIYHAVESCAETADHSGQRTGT

For the compound `COC1(C(=O)N2CCC(c3cc(S(=O)(=O)NC4(C#N)CC4)cn4c(-c5nnc(C(F)(F)F)s5)ncc34)CC2)CC1` [Example 373, N-(1-cyanocyclopropyl)-8-(1-(1-methoxycyclopropane-1-carbonyl)piperidin-4-yl)-3-(5-(trifluoromethyl)-1,3,4-thiadiazol-2-yl)imidazo[1,5-a]pyridine-6-sulfonamide], the IC50 worked out at 3.31 nM at PARG (PARG, TFMU-ADPr substrate) and 21.1 nM in the test on HCC1806 (Homo sapiens, HCC1806, 168 h).
The matching figures for `[2H]C([2H])([2H])OC1(C(=O)N2CCN(c3cc(S(=O)(=O)NC4(C)CC4)cn4c(-c5nnc(C(F)(F)F)s5)ncc34)CC2)CC1` [Example 168, 8-(4-(1-(methoxy-d3)cyclopropane-1-carbonyl)piperazin-1-yl)-N-(1-methylcyclopropyl)-3-(5-(trifluoromethyl)-1,3,4-thiadiazol-2-yl)imidazo[1,5-a]pyridine-6-sulfonamide]: 0.15 nM and 14 nM.
For the compound `COC1(C(=O)N2CCN(c3cc(S(=O)(=O)NC4(C)CC4)cn4c(-c5nnc(C(F)F)s5)ncc34)CC2)CN(C)C1` [Example 310, 3-(5-(difluoromethyl)-1,3,4-thiadiazol-2-yl)-8-(4-(3-methoxy-1-methylazetidine-3-carbonyl)piperazin-1-yl)-N-(1-methylcyclopropyl)imidazo[1,5-a]pyridine-6-sulfonamide], the half-inhibitory concentration (IC50) at PARG (PARG, TFMU-ADPr substrate) was below 0.1 nM; in the test with HCC1806 (Homo sapiens, HCC1806, 168 h), 38 nM.
For `CO[C@H]1C[C@H](C(=O)N2CCN(c3cc(S(=O)(=O)NC4(C)CC4)cn4c(-c5nnc(C(F)(F)F)s5)ncc34)CC2)C1` [Example 290, 8-(4-((1r,3r)-3-methoxycyclobutane-1-carbonyl)piperazin-1-yl)-N-(1-methylcyclopropyl)-3-(5-(trifluoromethyl)-1,3,4-thiadiazol-2-yl)imidazo[1,5-a]pyridine-6-sulfonamide] the same measures were 14.5 nM and 151 nM.
The matching figures for `O=S(=O)(NC1(CF)COC1)c1cc(N2CCC3(CC2)COC3)c2cnc(-c3nnc(C(F)(F)F)s3)n2c1` [Example 176, N-(3-(fluoromethyl)oxetan-3-yl)-8-(2-oxa-7-azaspiro[3.5]nonan-7-yl)-3-(5-(trifluoromethyl)-1,3,4-thiadiazol-2-yl)imidazo[1,5-a]pyridine-6-sulfonamide]: 4.37 nM and 1340 nM.
Turning to `N#CC1(NS(=O)(=O)c2cc(N3CC[C@H](O)C3)c3cnc(-c4nnc(C(F)(F)F)s4)n3c2)CC1` [Example 239, (S)-N-(1-cyanocyclopropyl)-8-(3-hydroxypyrrolidin-1-yl)-3-(5-(trifluoromethyl)-1,3,4-thiadiazol-2-yl)imidazo[1,5-a]pyridine-6-sulfonamide], the IC50 was 380 nM at PARG (PARG, TFMU-ADPr substrate) and 9790 nM in the test on HCC1806 (Homo sapiens, HCC1806, 168 h).
With `COCC1CN(c2cc(S(=O)(=O)NC3(CF)COC3)cn3c(-c4nnc(C(F)F)s4)nc(Cl)c23)CCN1` (stereo not drawn) [Example 136, 1-chloro-3-(5-(difluoromethyl)-1,3,4-thiadiazol-2-yl)-N-(3-(fluoromethyl)oxetan-3-yl)-8-(3-(methoxymethyl)piperazin-1-yl)imidazo[1,5-a]pyridine-6-sulfonamide], the half-maximal inhibitory concentration (IC50) against PARG (PARG, TFMU-ADPr substrate) was 7.94 nM; in the test with HCC1806 (Homo sapiens, HCC1806, 168 h) it was 199 nM.
For the compound `CC1(NS(=O)(=O)c2cc(N3CCN(C(=O)[C@H]4C[C@H](F)CN4)CC3)c3cnc(-c4nnc(C(F)(F)F)s4)n3c2)CC1` [Example 323, 8-(4-((2R,4S)-4-fluoropyrrolidine-2-carbonyl)piperazin-1-yl)-N-(1-methylcyclopropyl)-3-(5-(trifluoromethyl)-1,3,4-thiadiazol-2-yl)imidazo[1,5-a]pyridine-6-sulfonamide], the half-inhibitory concentration (IC50) on PARG (PARG, TFMU-ADPr substrate) came to 5.41 nM; with HCC1806 (Homo sapiens, HCC1806, 168 h) it was 181 nM.
As for `CC1(C(=O)N2CC3CCC2CN3c2cc(S(=O)(=O)NC3(C#N)CC3)cn3c(-c4nnc(C(F)F)s4)ncc23)CC1` (stereo not drawn) [Example 92, N-(1-cyanocyclopropyl)-3-(5-(difluoromethyl)-1,3,4-thiadiazol-2-yl)-8-(5-(1-methylcyclopropane-1-carbonyl)-2,5-diazabicyclo[2.2.2]octan-2-yl)imidazo[1,5-a]pyridine-6-sulfonamide], the IC50 against PARG (setting [1]) was below 100 nM; against PARG (PARG, TFMU-ADPr substrate), 27.5 nM; in the test with HCC1806, 974 nM; with HCC1806 (Homo sapiens, HCC1806, 168 h) it was 500 to 5000 nM.
Turning to `CN(C)C(=O)N1CC2(CC=C(c3nc(-c4nnc(C(F)F)s4)n4cc(S(=O)(=O)NC5(C#N)CC5)ccc34)C2)C1` [Example 25, 6-(6-(N-(1-cyanocyclopropyl)sulfamoyl)-3-(5-(difluoromethyl)-1,3,4-thiadiazol-2-yl)imidazo[1,5-a]pyridin-1-yl)-N,N-dimethyl-2-azaspiro[3.4]oct-6-ene-2-carboxamide], the IC50 on PARG (setting [1]) was below 100 nM; at PARG (PARG, TFMU-ADPr substrate) it was 4.84 nM; in the test with HCC1806, 490 nM; in the test on HCC1806 (Homo sapiens, HCC1806, 168 h), below 500 nM.
`COc1ccc(C(=O)/C=C/C(=O)N2CCN(c3cc(S(=O)(=O)NC4CC4)cn4c(-c5nnc(C(F)(F)F)s5)ncc34)CC2)cc1` [Example 243, (E)-N-cyclopropyl-8-(4-(4-(4-methoxyphenyl)-4-oxobut-2-enoyl)piperazin-1-yl)-3-(5-(trifluoromethyl)-1,3,4-thiadiazol-2-yl)imidazo[1,5-a]pyridine-6-sulfonamide]: the IC50 against PARG (PARG, TFMU-ADPr substrate) is 871 nM; in the test on HCC1806 (Homo sapiens, HCC1806, 168 h), 200 nM.
The matching figures for `CC(CO)C(=O)N1CCN(c2cc(S(=O)(=O)NC3(C#N)CC3)cn3c(-c4nnc(C(F)(F)F)s4)ncc23)CC1` (stereo not drawn) [Example 259, N-(1-cyanocyclopropyl)-8-(4-(3-hydroxy-2-methylpropanoyl)piperazin-1-yl)-3-(5-(trifluoromethyl)-1,3,4-thiadiazol-2-yl)imidazo[1,5-a]pyridine-6-sulfonamide]: 45.7 nM and 1500 nM.
For `CN1CC(C(=O)N2CCN(c3cc(S(=O)(=O)NC4(C)CC4)cn4c(-c5nnc(C(F)(F)F)s5)ncc34)CC2)C1` [Example 333, 8-(4-(1-methylazetidine-3-carbonyl)piperazin-1-yl)-N-(1-methylcyclopropyl)-3-(5-(trifluoromethyl)-1,3,4-thiadiazol-2-yl)imidazo[1,5-a]pyridine-6-sulfonamide] the same measures were 3.83 nM and 310 nM.
On to `CC1(NS(=O)(=O)c2cc(N3CCN4C(=O)CCC4C3)c3cnc(-c4nnc(C(F)(F)F)s4)n3c2)COC1` (stereo not drawn) [Example 186, N-(3-methyloxetan-3-yl)-8-(6-oxohexahydropyrrolo[1,2-a]pyrazin-2(1H)-yl)-3-(5-(trifluoromethyl)-1,3,4-thiadiazol-2-yl)imidazo[1,5-a]pyridine-6-sulfonamide], for which the IC50 against PARG (PARG, TFMU-ADPr substrate) amounted to 5.62 nM; with HCC1806 (Homo sapiens, HCC1806, 168 h), 485 nM.
On to `CN1CCC[C@@H]1C(=O)N1CCN(c2cc(S(=O)(=O)NC3(C)CC3)cn3c(-c4nnc(C(F)(F)F)s4)ncc23)CC1` [Example 325, 8-(4-(methyl-D-prolyl)piperazin-1-yl)-N-(1-methylcyclopropyl)-3-(5-(trifluoromethyl)-1,3,4-thiadiazol-2-yl)imidazo[1,5-a]pyridine-6-sulfonamide], for which the 50% inhibitory concentration (IC50) on PARG (PARG, TFMU-ADPr substrate) was determined as 4.46 nM; with HCC1806 (Homo sapiens, HCC1806, 168 h), 120 nM.
For `[2H]c1nc(-c2nnc(C(F)F)s2)n2cc(S(=O)(=O)NC3(C)COC3)cc(N3CCNC(COC)C3)c12` (stereo not drawn) [Example 158, 3-(5-(difluoromethyl)-1,3,4-thiadiazol-2-yl)-8-(3-(methoxymethyl)piperazin-1-yl)-N-(3-methyloxetan-3-yl)imidazo[1,5-a]pyridine-6-sulfonamide-1-d] the same measures were 15.8 nM and 1090 nM.
With `CC1(NS(=O)(=O)c2cc(N3CCC(O)(C(F)(F)F)CC3)c3cnc(-c4nnc(C(F)F)s4)n3c2)COC1` [Example 72, 3-(5-(difluoromethyl)-1,3,4-thiadiazol-2-yl)-8-(4-hydroxy-4-(trifluoromethyl)piperidin-1-yl)-N-(3-methyloxetan-3-yl)imidazo[1,5-a]pyridine-6-sulfonamide], the concentration for half-maximal inhibition (IC50) on PARG (setting [1]) is below 100 nM; against PARG (PARG, TFMU-ADPr substrate), 17.8 nM; with HCC1806, 805 nM; with HCC1806 (Homo sapiens, HCC1806, 168 h) it was 500 to 5000 nM.
As to `CC(C)C(=O)N1CCN(c2cc(S(=O)(=O)NC3(C#N)CC3)cn3c(-c4nnc(C(F)F)s4)cnc23)C[C@H]1C` [Example 206, (R)-N-(1-cyanocyclopropyl)-3-(5-(difluoromethyl)-1,3,4-thiadiazol-2-yl)-8-(4-isobutyryl-3-methylpiperazin-1-yl)imidazo[1,2-a]pyridine-6-sulfonamide], the IC50 was 21.9 nM on PARG (PARG, TFMU-ADPr substrate) and 1180 nM with HCC1806 (Homo sapiens, HCC1806, 168 h).
`CC1(C(=O)N2CCN(c3cc(S(=O)(=O)NC4(C#N)CC4)cn4c(-c5nnc(C(F)(F)F)s5)ncc34)CC2)COC1` [Example 299, N-(1-cyanocyclopropyl)-8-(4-(3-methyloxetane-3-carbonyl)piperazin-1-yl)-3-(5-(trifluoromethyl)-1,3,4-thiadiazol-2-yl)imidazo[1,5-a]pyridine-6-sulfonamide]: the half-maximal inhibitory concentration (IC50) was 24 nM at PARG (PARG, TFMU-ADPr substrate) and 1030 nM with HCC1806 (Homo sapiens, HCC1806, 168 h).
As for `CC(C)(F)C(=O)N1CCN(c2cc(S(=O)(=O)NC3(C#N)CC3)cn3c(-c4nnc(C(F)(F)F)s4)ncc23)CC1` [Example 224, N-(1-cyanocyclopropyl)-8-(4-(2-fluoro-2-methylpropanoyl)piperazin-1-yl)-3-(5-(trifluoromethyl)-1,3,4-thiadiazol-2-yl)imidazo[1,5-a]pyridine-6-sulfonamide], the IC50 was determined as 13.8 nM against PARG (PARG, TFMU-ADPr substrate) and 1020 nM in the test on HCC1806 (Homo sapiens, HCC1806, 168 h).
For `N#CC1(NS(=O)(=O)c2cc(N3CCN(C(=O)C(O)C(F)(F)F)CC3)c3cnc(-c4nnc(C(F)F)s4)n3c2)CC1` (stereo not drawn) [Example 261, N-(1-cyanocyclopropyl)-3-(5-(difluoromethyl)-1,3,4-thiadiazol-2-yl)-8-(4-(3,3,3-trifluoro-2-hydroxypropanoyl)piperazin-1-yl)imidazo[1,5-a]pyridine-6-sulfonamide], the IC50 on PARG (PARG, TFMU-ADPr substrate) was determined as 100 nM; in the test with HCC1806 (Homo sapiens, HCC1806, 168 h), 370 nM.

One may read the IC50 as the point on the concentration scale where inhibition reaches its midpoint.
